Results as given in the supplement of paper PMC10307832.

Key:
Assay in all cases: relative viability (nuclei count vs DMSO), 5 days (fraction); higher = more cells survive
Neratinib + Decitabine = compound: CCOc1cc2ncc(C#N)c(Nc3ccc(OCc4ccccn4)c(Cl)c3)c2cc1NC(=O)/C=C/CN(C)C [Neratinib] + Nc1ncn([C@H]2C[C@H](O)[C@@H](CO)O2)c(=O)n1 [Decitabine] (partner 2 µM)
In short: (§1)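 For relative viability, nuclei counts in treated wells were divided by those in vehicle wells. Lung cancer cell lines had been pin-tool dosed in 1536-well plates the day after seeding and cultured for 5 days, then fixed and stained in one step (final 0.05% Triton X-100, 1% formaldehyde, 1 ug/ml Hoechst) and imaged at 4×. Doses were one drug alone or a fixed anchor-drug dose plus five library-drug doses (not always all listed) in √10 steps, and values are duplicate-plate medians.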

Neratinib + Bortezomib = compound: CCOc1cc2ncc(C#N)c(Nc3ccc(OCc4ccccn4)c(Cl)c3)c2cc1NC(=O)/C=C/CN(C)C [Neratinib] + CC(C)C[C@H](NC(=O)[C@H](Cc1ccccc1)NC(=O)c1cnccn1)B(O)O [Bortezomib] (partner 0.002 µM)
In short: as §1

Neratinib + Lapatinib = compound: CCOc1cc2ncc(C#N)c(Nc3ccc(OCc4ccccn4)c(Cl)c3)c2cc1NC(=O)/C=C/CN(C)C [Neratinib] + CS(=O)(=O)CCNCc1ccc(-c2ccc3ncnc(Nc4ccc(OCc5cccc(F)c5)c(Cl)c4)c3c2)o1 [Lapatinib] (partner 2 µM)
In short: as §1

Neratinib + AZD7762 = compound: CCOc1cc2ncc(C#N)c(Nc3ccc(OCc4ccccn4)c(Cl)c3)c2cc1NC(=O)/C=C/CN(C)C [Neratinib] + NC(=O)Nc1cc(-c2cccc(F)c2)sc1C(=O)N[C@H]1CCCNC1 [AZD7762] (partner 0.2 µM)
In short: as §1

Cell Line	relative viability (Neratinib + Decitabine; first compound 0.01 µM)	relative viability (Neratinib + Decitabine; first compound 0.03162 µM)	relative viability (Neratinib + Decitabine; first compound 0.1 µM)	relative viability (Neratinib + Decitabine; first compound 0.3162 µM)	relative viability (Neratinib + Decitabine; first compound 1 µM)	relative viability (Neratinib + Bortezomib; first compound 0.01 µM)	relative viability (Neratinib + Bortezomib; first compound 0.03162 µM)	relative viability (Neratinib + Bortezomib; first compound 0.1 µM)	relative viability (Neratinib + Bortezomib; first compound 0.3162 µM)	relative viability (Neratinib + Bortezomib; first compound 1 µM)	relative viability (Neratinib + Lapatinib; first compound 0.01 µM)	relative viability (Neratinib + Lapatinib; first compound 0.03162 µM)	relative viability (Neratinib + Lapatinib; first compound 0.1 µM)	relative viability (Neratinib + Lapatinib; first compound 0.3162 µM)	relative viability (Neratinib + Lapatinib; first compound 1 µM)	relative viability (Neratinib + AZD7762; first compound 0.03162 µM)	relative viability (Neratinib + AZD7762; first compound 0.1 µM)	relative viability (Neratinib + AZD7762; first compound 0.3162 µM)	relative viability (Neratinib + AZD7762; first compound 1 µM)	relative viability (Neratinib + AZD7762; first compound 0.01 µM)
NCI-H1792	0.731	0.576	0.503	0.516	0.546	1.01	0.965	0.897	0.896	0.745	1.02	1.08	0.547	0.81	0.849	0.943	0.625	0.533	0.283	
NCI-H1915	0.262	0.271	0.251	0.241	0.286	1.06	1.03	0.952	0.874	0.962	1.05	1.05	0.898	0.832	0.964	0.716	0.638	0.685	0.653	0.791
NCI-H1975	0.36	0.444	0.351	0.346	0.19	0.36	0.428	0.423	0.252	0.191	1.09	0.972	0.609	0.403	0.191	0.847	0.619	0.362	0.303	0.855
NCI-H1993	0.643	0.628	0.272	0.484	0.578		1.11	0.763	0.646		0.88	0.795	0.79	0.845	0.803	0.745	0.624	0.465	0.581	0.762
NCI-H2085	0.595	0.547	0.542	0.485	0.516	1.05		0.869	1.06	0.76	0.76	0.887	0.767	0.71	0.699	1.04	0.933	0.746		0.924
NCI-H2087	0.272	0.333	0.239	0.254	0.215	0.775	0.867		0.782	0.857	1.02	0.995		0.989	0.894	1.29	0.985	1.24	0.694	1.36
NCI-H2126	0.644	0.632	0.54	0.566	0.556	1.2	1.13	1.05	1.07	0.821	0.79		0.735	0.754	0.672	0.999	0.873	1	0.741	1.07
NCI-H2347	0.679	0.606		0.545	0.633	1.01	1.12	0.808	0.721	1.11	0.812	1.04	0.94	0.952	0.83	0.733	0.533	0.756	0.457	0.727
NCI-H2405	0.799	0.74	0.769	0.675	0.669	1.05	1.09	0.708	0.998	0.954	1.26	1.04	1.04	1.16	0.804	0.799	0.751	0.635	0.446	0.818
NCI-H3122	0.365	0.544	0.488	0.457	0.364	1.05	1.1	0.98	1.06	0.775	1.05	1.05	0.884	1.03	0.601	1	0.88	1.01	0.438	1.05
PC-3 [JPC-3]	0.814	0.912	0.764	0.547	0.606	0.834	0.844	0.82	0.802	0.365	0.457	0.433	0.455	0.485	0.373	0.863	0.856	0.487	0.51	0.798
PC-14	0.217	0.285	0.241	0.194	0.108	0.88	0.86	0.741	0.918	0.158	0.365	0.327	0.267	0.285	0.302	0.41	0.36	0.242	0.134	0.366
RERF-LC-KJ	0.777	0.744	0.618	0.72	0.457	1.19	1.07	0.87	0.878	0.596	0.78	0.923	0.854		0.915	1.1	0.741	0.734	0.679	1.06
